In the supplement of paper PMC10307832:

What was measured:
Test in all cases: relative viability (nuclei count vs DMSO), 5 days (fraction); higher = more cells survive
LCLC-103H = test system: LCLC-103H
In short: (§1)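 For relative viability, nuclei counts in treated wells were divided by those in vehicle wells. Lung cancer cell lines had been pin-tool dosed in 1536-well plates the day after seeding and cultured for 5 days, then fixed and stained in one step (final 0.05% Triton X-100, 1% formaldehyde, 1 ug/ml Hoechst) and imaged at 4×. Doses were one drug alone or a fixed anchor-drug dose plus five library-drug doses (not always all listed) in √10 steps, and values are duplicate-plate medians.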

NCI-H2347 = test system: NCI-H2347
In short: as §1

NCI-H460 = test system: NCI-H460
In short: as §1

NCI-H661 = test system: NCI-H661
In short: as §1

NCI-H1755 = test system: NCI-H1755
In short: as §1

NCI-H1563 = test system: NCI-H1563
In short: as §1

NCI-H2170 = test system: NCI-H2170
In short: as §1

NCI-H1792 = test system: NCI-H1792
In short: as §1

SK-MES-1 = test system: SK-MES-1
In short: as §1

NCI-H1355 = test system: NCI-H1355
In short: as §1

RERF-LC-KJ = test system: RERF-LC-KJ
In short: as §1

NCI-H322M = test system: NCI-H322M
In short: as §1

NCI-H3122 = test system: NCI-H3122
In short: as §1

NCI-H727 = test system: NCI-H727
In short: as §1

NCI-H1915 = test system: NCI-H1915
In short: as §1

NCI-H1651 = test system: NCI-H1651
In short: as §1

LXF-289 = test system: LXF-289
In short: as §1

NCI-H596 = test system: NCI-H596
In short: as §1

NCI-H520 = test system: NCI-H520
In short: as §1

NCI-H650 = test system: NCI-H650
In short: as §1

PC-14 = test system: PC-14
In short: as §1

NCI-H441 = test system: NCI-H441
In short: as §1

SW 900 = test system: SW 900
In short: as §1

O=C(O)c1ccc(-c2c[nH]c3ncc(-c4ccccc4)cc23)cc1C1CCCC1 + N=C(N)NC(=N)NCCc1ccccc1 [Phenformin] (partner 250 µM)
relative viability (LCLC-103H; first compound 0.04 µM): 0.369 | relative viability (LCLC-103H; first compound 0.1265 µM): 0.34 | relative viability (LCLC-103H; first compound 0.4 µM): 0.389 | relative viability (LCLC-103H; first compound 1.265 µM): 0.371 | relative viability (NCI-H2347; first compound 0.04 µM): 0.396 | relative viability (NCI-H2347; first compound 0.1265 µM): 0.475 | relative viability (NCI-H2347; first compound 0.4 µM): 0.484 | relative viability (NCI-H2347; first compound 1.265 µM): 0.405 | relative viability (NCI-H460; first compound 0.04 µM): 0.536 | relative viability (NCI-H460; first compound 0.1265 µM): 0.526 | relative viability (NCI-H460; first compound 0.4 µM): 0.507 | relative viability (NCI-H460; first compound 1.265 µM): 0.46 | relative viability (NCI-H661; first compound 0.04 µM): 0.292 | relative viability (NCI-H661; first compound 0.4 µM): 0.285 | relative viability (NCI-H661; first compound 1.265 µM): 0.278 | relative viability (NCI-H1755; first compound 0.04 µM): 0.597 | relative viability (NCI-H1755; first compound 0.1265 µM): 0.615 | relative viability (NCI-H1755; first compound 0.4 µM): 0.64 | relative viability (NCI-H1755; first compound 1.265 µM): 0.604 | relative viability (NCI-H1563; first compound 0.04 µM): 0.679 | relative viability (NCI-H1563; first compound 0.1265 µM): 0.679 | relative viability (NCI-H1563; first compound 0.4 µM): 0.634 | relative viability (NCI-H1563; first compound 1.265 µM): 0.654 | relative viability (NCI-H2170; first compound 0.04 µM): 0.434 | relative viability (NCI-H2170; first compound 0.1265 µM): 0.413 | relative viability (NCI-H2170; first compound 0.4 µM): 0.459 | relative viability (NCI-H2170; first compound 1.265 µM): 0.362 | relative viability (NCI-H1792; first compound 0.1265 µM): 0.475 | relative viability (NCI-H1792; first compound 0.4 µM): 0.353 | relative viability (NCI-H1792; first compound 1.265 µM): 0.413 | relative viability (SK-MES-1; first compound 0.04 µM): 0.683 | relative viability (SK-MES-1; first compound 0.1265 µM): 0.687 | relative viability (SK-MES-1; first compound 0.4 µM): 0.637 | relative viability (SK-MES-1; first compound 1.265 µM): 0.447 | relative viability (NCI-H1355; first compound 0.04 µM): 0.446 | relative viability (NCI-H1355; first compound 0.1265 µM): 0.462 | relative viability (NCI-H1355; first compound 0.4 µM): 0.453 | relative viability (NCI-H1355; first compound 1.265 µM): 0.276 | relative viability (RERF-LC-KJ; first compound 0.04 µM): 0.432 | relative viability (RERF-LC-KJ; first compound 0.1265 µM): 0.456 | relative viability (RERF-LC-KJ; first compound 0.4 µM): 0.389 | relative viability (RERF-LC-KJ; first compound 1.265 µM): 0.369 | relative viability (NCI-H322M; first compound 0.04 µM): 0.772 | relative viability (NCI-H322M; first compound 0.1265 µM): 0.832 | relative viability (NCI-H322M; first compound 0.4 µM): 0.782 | relative viability (NCI-H322M; first compound 1.265 µM): 0.63 | relative viability (NCI-H3122; first compound 0.04 µM): 0.355 | relative viability (NCI-H3122; first compound 0.1265 µM): 0.399 | relative viability (NCI-H3122; first compound 0.4 µM): 0.394 | relative viability (NCI-H3122; first compound 1.265 µM): 0.337 | relative viability (NCI-H727; first compound 0.04 µM): 0.464 | relative viability (NCI-H727; first compound 0.1265 µM): 0.684 | relative viability (NCI-H727; first compound 0.4 µM): 0.582 | relative viability (NCI-H727; first compound 1.265 µM): 0.509 | relative viability (NCI-H1915; first compound 0.04 µM): 0.376 | relative viability (NCI-H1915; first compound 0.1265 µM): 0.362 | relative viability (NCI-H1915; first compound 0.4 µM): 0.34 | relative viability (NCI-H1915; first compound 1.265 µM): 0.295 | relative viability (NCI-H1651; first compound 0.04 µM): 0.349 | relative viability (NCI-H1651; first compound 0.1265 µM): 0.328 | relative viability (NCI-H1651; first compound 0.4 µM): 0.278 | relative viability (NCI-H1651; first compound 1.265 µM): 0.189 | relative viability (LXF-289; first compound 0.04 µM): 0.543 | relative viability (LXF-289; first compound 0.1265 µM): 0.507 | relative viability (LXF-289; first compound 0.4 µM): 0.485 | relative viability (LXF-289; first compound 1.265 µM): 0.243 | relative viability (NCI-H596; first compound 0.04 µM): 0.772 | relative viability (NCI-H596; first compound 0.1265 µM): 0.808 | relative viability (NCI-H596; first compound 0.4 µM): 0.79 | relative viability (NCI-H596; first compound 1.265 µM): 0.737 | relative viability (NCI-H520; first compound 0.04 µM): 0.583 | relative viability (NCI-H520; first compound 0.1265 µM): 0.82 | relative viability (NCI-H520; first compound 0.4 µM): 0.585 | relative viability (NCI-H520; first compound 1.265 µM): 0.594 | relative viability (NCI-H650; first compound 0.04 µM): 0.42 | relative viability (NCI-H650; first compound 0.1265 µM): 0.494 | relative viability (NCI-H650; first compound 0.4 µM): 0.448 | relative viability (NCI-H650; first compound 1.265 µM): 0.399 | relative viability (PC-14; first compound 0.04 µM): 0.588 | relative viability (PC-14; first compound 0.1265 µM): 0.678 | relative viability (PC-14; first compound 0.4 µM): 0.548 | relative viability (PC-14; first compound 1.265 µM): 0.604 | relative viability (NCI-H441; first compound 0.04 µM): 0.765 | relative viability (NCI-H441; first compound 0.1265 µM): 1.15 | relative viability (NCI-H441; first compound 0.4 µM): 0.807 | relative viability (NCI-H441; first compound 1.265 µM): 0.28 | relative viability (SW 900; first compound 0.04 µM): 0.706 | relative viability (SW 900; first compound 0.1265 µM): 0.615 | relative viability (SW 900; first compound 0.4 µM): 0.654 | relative viability (SW 900; first compound 1.265 µM): 0.381
